# Where a name gives a salt, the structure may show the parent alone.
# Test system: intracellular cAMP in hBASMCs
# Assay: Intracellular cAMP in hBASMCs by [3H]-adenine labeling
# Assay type: cell-based, human
# Conditions: isoproterenol 10 μM, sustained incubation; [3H]-adenine labeling
# Method: hBASMCs in 24-well plates (50,000 cells per well) were grown to confluence. The medium was then replaced with serum-free SMGM-2, and after 24 h this was supplemented with [^3H]-adenine (1 μCi per well, 18.4 Ci·mmol^−1). After 2 h at 37 °C in humidified air with 5% CO2, the medium was removed, and the cells were washed twice with HBS. The cells were stimulated at 20 °C in HBS. Incubations were terminated by removal of the medium, addition of ice-cold trichloroacetic acid (5%, 1 mL) and rapid freezing. This protocol ensured that only intracellular [^3H]-cAMP was detected. [^3H]-adenine nucleotides were separated by column chromatography, and the activity was determined by liquid scintillation counting using Ultra-gold scintillant. Results are presented as [^3H]-cAMP activity as a percentage of the sum of the activities of the fractions containing [^3H]-cAMP, [^3H]-ATP, [^3H]-ADP and [^3H]-AMP; henceforth, reported as [^3H]-cAMP (%).
structure (smiles),measurement,value
"CC(C)NC[C@H](O)c1ccc(O)c(O)c1 [isoproterenol, (−)-isoproterenol hydrochloride]",stimulated cAMP concentration after 30 min relative to after 1 min,2.8 fold
